# In patent US12558368B2, “Compositions and devices for systemic delivery of uridine” (PHARMA CINQ, LLC, priority 2018, dated 2026):
# Legend:
# [1] = system: mortality caused by 3-nitropropionic acid (inhibitor of Complex II of the mitochondrial respiratory chain); experiment: Protection against mortality caused by 3-nitropropionic acid (Example 1; uridine and MgBHB); format: in vivo, Female CD-1 mice; details: 3-NP 60 mg/kg/day i.p., s.c. uridine 300 mg/kg b.i.d. and/or MgBHB 300 mg/kg b.i.d.; for Median Survival: 13 day study; for % Survival: end of 13 day study, 10 mice per group
# Description: 3-nitropropionic acid (3-NP) is an inhibitor of Complex II of the mitochondrial respiratory chain. Administration of 3-NP to experimental animals has been used as a model for mitochondrial diseases, Huntington's disease and pathological consequences of hypoxia. Daily dosing with 3-NP causes energy failure in the brain, heart and other tissues, resulting in mortality after several days. A 3-NP dosing regimen that caused 100% mortality in mice after approximately one week was selected for further evaluation of mortality, which is indicative of neuroprotective and cardioprotective effects, of compositions of the invention in a model of disorders caused by mitochondrial dysfunction. Survival times (median survival; the time point at which 50% of animals in a group had died) and percent survival at the end of the 13 day study were used to quantify protective effects of the test agents.
# Female CD-1 mice at approximately 16 weeks of age were divided into weight-matched groups of 10 mice each. All mice received daily intraperitoneal injections of 3-NP (60 mg/kg) in a volume of 0.01 ml per gram of body weight. 3-NP was administered at 2 PM on each of the 13 consecutive days of the experiment. Body weights were recorded each day to adjust drug doses as mice lost weight during repeated treatment with 3-NP.
# The comparative efficacy of uridine (VWR International) and the magnesium salt of racemic beta-hydroxybutyrate (magnesium β-hydroxybutyrate trihydrate; MgBHB·3H2O) (Nutra Planet) were assessed, as was the efficacy of a combination of uridine and MgBHB. All of the therapeutic treatments were administered by subcutaneous injection in a volume of 0.02 ml/gram of body weight twice per day, at 7 AM and 1 PM.
# • 1. Vehicle Control—0.9% saline b.i.d. • 2. Uridine 300 mg/kg b.i.d. • 3. MgBHB 300 mg/kg b.i.d.
# [2] = system: mortality caused by 3-nitropropionic acid (inhibitor of Complex II of the mitochondrial respiratory chain); experiment: Protection against mortality caused by 3-nitropropionic acid (Example 2; uridine, Na(DL-BHB), Na(D-BHB)); format: in vivo, Female CD-1 mice; details: 3-NP 60 mg/kg/day i.p., s.c. uridine 200 mg/kg t.i.d. and/or Na(DL-BHB) or Na(D-BHB) 328 mg/kg t.i.d.; for Median Survival: 12 day study; for % Survival: end of 12 day study, 10 mice per group
# Method: Mitochondrial dysfunction was produced by daily administration of 3-nitropropionic acid (60 mg/kg/day) by intraperitoneal injection. Groups of mice also received saline (control), uridine, DL-BHB, D-BHB, and combinations of uridine and D-BHB and DL-BHB as indicated below. Both D- and DL-BHB were administered as the water soluble sodium salts: Na(D-BHB) (Toronto Research Chemicals, catalog #H833025) and Na(DL-BHB) (VWR International, catalog #200012-200).
# • 1. Vehicle Control—0.9% saline b.i.d. • 2. Uridine 200 mg/kg t.i.d. • 3. Na (DL-BHB) 328 mg/kg t.i.d. • 4. Na (D-BHB) 328 mg/kg t.i.d. • 5. Uridine 200 mg/kg+Na (DL-BHB) 328 mg/kg t.i.d. • 6. Uridine 200 mg/kg+Na (D-BHB) 328 mg/kg t.i.d.
# Survival times (median survival; the time point at which 50% of animals in a group had died) and percent survival at the end of the 12 day study were used to quantify and compare protective effects of the test agents.
# Female CD-1 mice at approximately 16 weeks of age were divided into weight-matched groups of 10 mice each. All mice received daily intraperitoneal injections of 3-NP (60 mg/kg) in a volume of 0.01 ml per gram of body weight at 5 PM.
# The therapeutic treatments were administered by subcutaneous injection in a volume of 0.01 ml/gram of body weight three times per day, at 7 AM and 12 PM and 4 PM. 3-NP was administered at 5 PM on each of the consecutive days of the experiment. Body weights were recorded each day to adjust drug doses as mice lost weight during repeated treatment with 3-NP. Body weight was graphed for the various groups of mice until the group size decreased below 3.
# [3] = system: mortality caused by 3-nitropropionic acid (inhibitor of Complex II of the mitochondrial respiratory chain); experiment: Protection against mortality caused by 3-nitropropionic acid at 65 or 70 mg/kg/day (Example 3; uridine, Na(D-BHB)); format: in vivo, Female CD-1 mice; details: s.c. uridine 200 mg/kg t.i.d. and/or Na(D-BHB) 985 mg/kg t.i.d.; for % Survival: end of study, 10 mice per group
# Description: Subcutaneous administration of therapeutic agents is a suitable route of administration for emergency drugs that are intended to be used in people with traumatic brain injury, stroke or asphyxia, where the patient may not be capable of ingesting oral medications or may be in a situation where it is difficult to place an intravenous catheter. Subcutaneous drug administration is practical, but the composition must conform to volumes and osmolality values that are known to be compatible with this route of administration; excessively high osmolality can cause local edema, and volumes must be low enough for injection without problematic back pressure. Compositions comprising uridine, sodium beta-hydroxybutyrate and a combination of the two, with the osmolality restricted to a maximum of 800 milliosmoles/liter (a value known to be acceptable for subcutaneous fluid administration) were tested in a model of whole-body energy failure induced by daily intraperitoneal injections of 3-nitropropionic acid at two dose levels, 65 mg/kg/day and 70 mg/kg/day.
# Survival times (median survival; the time point at which 50% of animals in a group had died) and percent survival at the end of a 13 day study were used to quantify and compare protective effects of the test agents.
# Female CD-1 mice at approximately 16 weeks of age were divided into weight-matched groups of 10 mice each. All mice received daily intraperitoneal injections of 3-NP (65 mg/kg or 70 mg/kg) in a volume of 0.01 ml per gram of body weight at 5 PM.
# The therapeutic treatments were administered by subcutaneous injection in a volume of 0.02 ml/gram of body weight three times per day, at 7 AM and 12 PM and 4 PM. 3-NP was administered at 5 PM on each of the consecutive days of the experiment. Body weights were recorded each day to adjust drug doses as mice lost weight during repeated treatment with 3-NP. D-BHB was administered as the water soluble sodium salt Na(D-BHB) (Toronto Research Chemicals, catalog #H833025.
# 1. Vehicle Control—0.9% saline t.i.d.
# 2. Uridine 200 mg/kg t.i.d.
# 3. Na(D-BHB) 985 mg/kg t.i.d.
# 4. Uridine 200 mg/kg+Na(D-BHB) 985 mg/kg t.i.d.
# [4] = Pharmacokinetics of plasma uridine and D-BHB after subcutaneous administration; format: in vivo, Female CD-1 mice; details: mice
# Method: Groups of 8 mice (Female CD-1 mice, approximately 16 weeks old) were treated with subcutaneous uridine or uridine plus Na(D-BHB) as indicated in the table below. D-BHB was administered as the water soluble sodium salt Na(D-BHB) (Toronto Research Chemicals, catalog #H833025
# • 1. Group 1 (200 mg/kg Uridine+Na(D-BHB) received 10 mg/ml uridine and 49.26 mg/ml Na(D-BHB) (0.02 ml/g bw). • 2. Group 2 (300 mg/kg Uridine+Na(D-BHB) received 15 mg/ml uridine and 49.26 mg/ml Na(D-BHB) (0.02 ml/g bw). • 3. Group 3 (400 mg/kg Uridine+Na(D-BHB) received 20 mg/ml uridine and 49.26 mg/ml Na(D-BHB) (0.02 ml/g bw). • 4. Group 4 (400 mg/kg Uridine) received 20 mg/ml uridine (0.02 ml/g bw).
# Blood samples were obtained from the retro-orbital plexus at time points of 15, 30, 60 and 120 minutes after drug injection. Two blood samples (<200 microliters) were collected from each mouse into heparinized polyethylene tubes, with 4 mice bled at 15 and 60 minutes, and the other 4 mice in a group were bled at 30 and 120 minutes. Plasma samples were obtained by centrifugation, and were deproteinized and analyzed for uridine and uracil by an LC/MS method. Plasma D-BHB was measured in the same samples by a commercial enzymatic color-change assay.
# Rodents degrade uridine to uracil more rapidly and extensively than do humans, who have lower activities of the enzyme uridine phosphorylase. Therefore, it is important to take into account plasma uracil concentrations in rodents for optimum translation of rodent pharmacokinetic results to the human situation. The sum of uridine+uracil in rodents is a better reflection of plasma uridine equivalents than is uridine alone for translation to other animal models or to human dosing.
# [5] = humans, cited from earlier work
# [6] = s.c. Na(D-BHB) 985.1 mg/kg with uridine
Molecule,Median Survival [1],% Survival [1],Median Survival [2],Median Survival ([2]; listed as Na(DL-BHB)),% Survival [2],% Survival ([2]; listed as Na(DL-BHB)),Median Survival ([3]; 3-NP 65 mg/kg/day i.p.),% Survival ([3]; 3-NP 65 mg/kg/day i.p.),Median Survival ([3]; 3-NP 70 mg/kg/day i.p.),% Survival ([3]; 3-NP 70 mg/kg/day i.p.),"Maximum D-BHB concentration in plasma [4, 6]","Tmax of plasma D-BHB [4, 6]",Median Survival ([2]; listed as Na(D-BHB)),% Survival ([2]; listed as Na(D-BHB)),Local tolerability of infusion into peripheral veins ([5]; infusion into accessible peripheral veins),Dose-limiting toxicity during intravenous infusion ([5]; intravenous infusion),"Tmax ([4]; female, CD-1, mouse, plasma, sc, s.c. uridine 200-400 mg/kg with or without Na(D-BHB) 985.1 mg/kg, read-out: Tmax of plasma uridine (and uridine+uracil))","Plasma uridine (and uridine+uracil) C max values ([4]; s.c. uridine 200, 300, 400 mg/kg)"
magnesium β-hydroxybutyrate trihydrate [MgBHB],10 days,20% (2/10),,,,,,,,,,,,,,,,
CC(O)CC(=O)[O-].[Na+] (racemic) [Na (DL-BHB)],,,8 days,7.5 days,20% (2/10),20%,,,,,,,,,,,,
C[C@@H](O)CC(=O)[O-].[Na+] [Na (D-BHB)],,,7.5 days,,10% (1/10),,10.5 days,40% (4/10),6 days,0% (0/10),approximately 3 millimolar,15 min,8 days,10%,,,,
"O=c1ccn([C@@H]2O[C@H](CO)[C@@H](O)[C@H]2O)c(=O)[nH]1 [Uridine, uridine]",12 days,40% (4/10),12 days,,,,9 days,30% (3/10),6.5 days,10% (1/10),,,,,caused local phlebitis,Hyperthermia was encountered as a dose-limiting toxicity,15 to 30 min,dose-dependent
